Reference: publication PMC6472001, “Phenolic Compounds from Humulus lupulus as Natural Antimicrobial Products: New Weapons in the Fight against Methicillin Resistant Staphylococcus aureus, Leishmania mexicana and Trypanosoma brucei Strains” (Molecules, 2019)
≈ marks a conversion by molar mass, not a printed value. Where two headings read alike, the source gives them in different places.

Legend:
MRSA strains = experiment: Broth microdilution MIC, range over strains; type: cell-based; conditions: Staphylococcus aureus, read-out: MICs towards MRSA strains
Procedure: (§1) The protocol employed was inspired by Abedini et al. with some modifications. Products were solubilized in DMSO and serially diluted two-fold in MH medium. A bacterial suspension at 10^5 CFU/mL was added to obtain a final volume of 200 µL. Final phenolic product concentrations in wells ranged from 625 to 2.4 µg/mL (exception for lupulone for which dilutions were continued until 0.3 µg/mL). […] Plates were incubated overnight with stirring (60 rpm) at 37 °C.

[1] = tested on: selected S. aureus strains; experiment: Broth microdilution MIC, range over strains; type: cell-based; conditions: Staphylococcus aureus; range over MRSA and MSSA strains of Table 3; read-out: MIC against selected S. aureus strains
Procedure: as §1

S. aureus T28.1 = experiment: Post-antibiotic effect (PAE); type: cell-based, Staphylococcus aureus; conditions: for Maximum Growth Retardation: 2 h exposure
Procedure: This method allows quantifying the delayed regrowth of a bacterial population following exposure to an active compound [76]. Stock solutions of xanthohumol, desmethylxanthohumol and lupulone were prepared in DMSO 20 times more concentrated than the desired final concentrations (MIC/4 to 4 × MIC). A 2 h pre-treatment with purified prenylated compounds was performed using 8.5 mL of BHI medium, 0.5 mL of purified product in DMSO and 1 mL of a bacterial suspension at 10^5 CFU/mL, incubated at 37 °C. […] The hop compound was then inactivated by a 1000-fold dilution. After inactivation, a growth curve was performed with counts at 30 min and every 2 h. The growth lag was quantified by comparison with the control, using the following formula: PAE=T−C
T is the time needed for the bacterial population to grow by 1 log(CFU/mL) at the given concentration, C is the corresponding time for the control (Figure 5)

S. aureus T28.1 biofilm [2] = experiment: Anti-biofilm: destruction of preformed biofilm on artificial surface; type: cell-based, Staphylococcus aureus
Procedure: These experiments were inspired and adapted from Liu et al.. They were performed using a 96-well microplate with a flat bottom.
The effect was also evaluated after the biofilm formation in order to evaluate if the hop phenolic compounds are able to destroy it. A first culture of 24 h at 37 °C with 190 µL of BHI medium and 10 µL of a 10^5 CFU/mL bacterial suspension allowed producing the biofilm. Wells were voided and washed with PBS. The biofilm was then treated with xanthohumol, desmethylxanthohumol or lupulone diluted at 5% in the BHI medium to obtain a final volume of 200 µL. Plates were incubated for 24 h at 37 °C, then voided and colored with crystal violet as above.

S. aureus T28.1 biofilm [3] = experiment: Anti-biofilm: biofilm formation on synthetic bone substitute; type: cell-based, Staphylococcus aureus; conditions: at MIC
Procedure: β-Tricalcium phosphate discs (Cerasorb®, Curasan, Germany) were used as bone substitute. Non-glucose enriched BHI medium was used here, because the bacterial glucose metabolism causes an acidification of the culture medium which leads to the disintegration of the discs. Discs were introduced in a 24-well plate: 1.8 mL of BHI media were added with 0.1 mL of product in DMSO (5%) and 0.1 mL of a 10^5 CFU/mL bacterial suspension. Final concentrations of hop phenolic compounds were from MIC/4 to 4 × MIC. After 24 h at 37 °C, counts were performed in two steps. First, planktonic bacteria were counted from 100 µL of the culture supernatant by plating tenfold dilutions on MHA. Then, bacteria adhering to the discs were counted: discs were removed and washed with a CR solution, then, 10 mL of CR were added to each disk and treated 1 min by sonication (35 kHz) and 30 s by vortex. The obtained suspension was enumerated as previously. The detection threshold was also 1 log(CFU/mL).

[4] = tested on: J774 cells (monocyte macrophage); experiment: Cytotoxicity / antiproliferative effect; type: cell-based, mouse
Procedure: (§2) Several human cell lines were used for the cytotoxic bioassays: non-cancer lung fibroblasts (WI-38), hepatocellular carcinoma (Hep-G2), osteosarcoma (MG-63) and the mouse monocyte macrophage J774. Cells were seeded into wells of a 96-well microplate in a Gibco™ Dulbecco’s modified eagles medium (DMEM), except for MG-63 which were cultivated in a minimum essential medium (MEM) (ThermoFisher Scientific, Illkirch-Graffenstaden, France). Both media were enriched with 10% FBS (ThermoFisher Scientific, France) and some antibiotics (mixture penicillin/streptomycin 100 UI/mL, Sigma Aldrich). After one or two days at 37 °C (5% of CO2), wells were emptied by suction. Cells were then treated with hops compounds (xanthohumol, desmethylxanthohumol, humulone, lupulone) in DMSO at 0.2% in the culture medium, to obtain a final volume of 100 µL in wells (negative control: 0.2% DMSO). Camptothecin was used as a positive control. After 48 to 72 h exposure, culture medium was replaced by 10% of Alamar blue or 3-(4,5-dimethylthiazol-2-yl)-2,5-diphenyltetrazolium bromide (MTT) in the medium (ThermoFisher Scientific®, Illkirch, France) and plates were incubated the time necessary to the reaction. Results were measured respectively by fluorescence (excitation 530 nm and emission 590 nm) or by optical density at 550 nm. The IC50 of each product was determined using GraphPad Prism (version 5.01).

[5] = tested on: MG-63 cells (osteosarcoma); experiment: cells; type: cell-based, human
Procedure: as §2

biofilm formation = tested on: biofilm formation; parameters: method as in PMID 24175280; conditions: at the MIC; cited from earlier work
[6] = tested on: human hepatocellular carcinoma; parameters: method as in PMID 18814205; conditions: cited from earlier work
lung cell line = tested on: lung cell line; parameters: method as in PMID 26664015; conditions: cited from earlier work
mice = tested on: mice; parameters: method as in PMID 20427021; conditions: approximately 1000 mg/kg of body weight of mice; cited from earlier work
humans = tested on: humans; parameters: method as in PMID 24038952; conditions: up to 180 mg in humans for a short intake; cited from earlier work
Plasmodium falciparum = tested on: Plasmodium falciparum; parameters: method as in PMID 15824094; conditions: cited from earlier work
Leishmania amazonensis = tested on: Leishmania amazonensis; parameters: method as in PMID 27938439; conditions: cited from earlier work
[7] = Mus musculus, read-out: IC50 ± SD
[8] = Mus musculus, value in parentheses, read-out: IC50 (converted)
[9] = Homo sapiens, MG-63, read-out: IC50 ± SD
[10] = Homo sapiens, MG-63, value in parentheses, read-out: IC50 (converted)

Row | Compound | MIC (MRSA strains) | MIC [1] | Maximum Growth Retardation (S. aureus T28.1; 2 × MIC) | Maximum Growth Retardation (S. aureus T28.1; 4 × MIC) | Maximum Growth Retardation (S. aureus T28.1; MIC/2) | Maximum Growth Retardation (S. aureus T28.1; MIC) | Biofilm destruction (S. aureus T28.1 biofilm [2]; MIC/4) | Biofilm formation on bone substitute discs (S. aureus T28.1 biofilm [3]) | IC50 [4, 7] | IC50 [4, 8] | IC50 [5, 9] | IC50 [5, 10] | other results
1 | CC(C)=CCc1c(O)cc(O)c(C(=O)/C=C/c2ccc(O)cc2)c1O [DMX, desmethylxanthohumol] | 19.5 to 39 µg/mL (≈ 57.3 to 115 µM) | 19.5 to 39 µg/mL (≈ 57.3 to 115 µM) | 2.29 h | 2.34 h | 2.10 h | 2.32 h | 81% | significant decrease | 9.7 ± 1 µg/mL | 28.5 µM | 39.5 ± 3.3 µg/mL | 116 µM | 
2 | COc1cc(O)c(CC=C(C)C)c(O)c1C(=O)/C=C/c1ccc(O)cc1 [XN, xanthohumol] | 9.8 to 19.5 µg/mL (≈ 27.7 to 55 µM) | 9.8 to 19.5 µg/mL (≈ 27.7 to 55 µM) | 2.05 h | 3.29 h | 1.34 h | 2.23 h |  |  | 3.4 ± 0.5 µg/mL | 9.6 µM | 10.4 ± 2.6 µg/mL | 29.4 µM | Biofilm destruction (S. aureus T28.1 biofilm [2]; at the MIC and above): non-dose-dependent activity; Inhibition of biofilm formation (biofilm formation): 86.5%; IC50 [6]: about 75 µg/mL; IC50 (lung cell line): ~100 µg/mL (≈ 282 µM); Safety in vivo (mice): good safety; Safety in vivo (humans): good safety; IC50 (Plasmodium falciparum): in the µM range; IC50 (Leishmania amazonensis): in the µM range
3 | lupulone |  |  |  | 0.47 h | 0.26 h | 0.53 h | 62.8% | significant decrease |  |  |  |  | Maximum delay after inactivation (S. aureus T28.1; over all concentrations): ~55 min; IC50 ± SD [4]: 1.5 ± 0.1 µg/mL; IC50 ([4]; value in parentheses, read-out: IC50 (converted)): 3.6 µM; cell viability [5]: ~100%; IC50 ± SD ([5]; MG-63): 4.3 ± 0.4 µg/mL; IC50 ([5]; MG-63, value in parentheses, read-out: IC50 (converted)): 10.4 µM; selectivity index ([5]; antibacterial activity compared to cytotoxicity against MG-63): > 4
